Consider four molecules from patent publication US20160101146A1, “TREATMENT FOR INFECTION WITH HEPATITIS B VIRUS ALONE OR IN COMBINATION WITH HEPATITIS DELTA VIRUS AND ASSOCIATED LIVER DISEASES” (NOVARTIS AG, priority 2011, published 2016).

In data set [1] the test system is Hepatitis B virus replication. As to the kind of experiment: Intracellular (cytoplasmic, nucleocapsid-associated) HBV DNA quantitation by real-time PCR in HBV-transfected hepatoma cells. It counts as cell-based, Hepatitis B virus (human hepatoma cell lines). The note with it: for reduction of cellular HBV DNA: FIG. 6. As for the experimental part: (§1) HepG2215 cell line, derived from HepG2 cells, was stably transfected with HBV DNA and supported full HBV replication with production of infectious virions and HBsAg. HepG2215 cells were cultured in 12-well plates, as described previously (7, 8), for 7 days prior to adding the cyclophilin inhibitors.
(§2) The cells were treated with 0.25, 1.0 or 5.0 micrograms/mL of NIM811 or DEB025; cells and supernatants were harvested separately at baseline, 6, 24, 48 and 72 hours after the addition of NIM811 or DEB025, respectively.
(§3) HuH-7 cells were transfected with a plasmid containing a pBlueScript KS(+) vector with a 1.5 HBV DNA genomes of subtype adw2 was used. Subconfluent HuH-7 cells were transfected with 5 μg of plasmid DNA per 60-mm-diameter dish using 10 μl of Superfect reagent (Qiagen, Crawley, UK). The supernatants were replaced 18 h posttransfection with medium supplemented with 10% FCS, and the cells were cultured for 3 days, as described (7).
(§4) Stably transfected (HepG2215) and transiently transfected (HUH-7) cells, producing full HBV virions and HBsAg particles, were treated with a range of Alisporivir concentrations (0.25, 1.0 5.0 or 20 micrograms/ml) alone, telbivudine alone, or combinations of Alisporivir and telbivudine. To determine the involvement of individual cyclophilins, HepG2215 cells were transfected with siRNA-specific for cyclophilin (Cyp) A, C or D and additionally treated with Alisporivir. Cytoplasmic extracts and supernatants were harvested at baseline; 24, 48 and 72 hours post-treatment. The kinetics of antiviral activity was assessed by quantitation of intracellular and secreted HBV-DNA (real-time qPCR) and HBsAg levels (ELISA).
(§5) HBV replication was assessed by quantitation of both viral nucleocapsid-associated HBV DNA (cytoplasmic) and the HBV DNA levels in cell culture supernatants, as described previously (8,9). Nucleocapsid HBV DNA was extracted and quantitated by TaqMan real-time PCR (ABI Prism 7700). Intracellular HBV DNA was normalized with b-actin as a house-keeping gene. Secreted HBV DNA was extracted with QIAmp DNA minikit (Qiagen, Sussex, UK) and also quantitated by TaqMan. The sensitivity of HBV DNA quantitation was verified in each run with serial dilutions of HBV DNA plasmid, as well as the EuroHep HBV DNA standard, as described (9,10).

Data set [2] relates to Hepatitis B virus replication. As to the kind of experiment: Secreted HBV DNA quantitation in cell culture supernatants by real-time PCR. It counts as cell-based, Hepatitis B virus (human hepatoma cell lines). The protocol: as §1, §2, §3, §4, §5
Data set [3] relates to Hepatitis B virus replication. As to the kind of experiment: Alisporivir treatment of HepG2215 cells silenced for CypA, C or D by siRNA; HBV-DNA and HBsAg levels. The note with it: greater effects in CypC or CypD silenced cells than CypA silenced cells (p<0.001). It counts as cell-based, Hepatitis B virus (human hepatoma cell line). As for the experimental part:
To assess the role of cyclophilin A in HBV replication, HepG2215 cells were transfected with siRNA for cyclophilin A and incubated with medium only or with the addition of NIM811 or DEB025. Similarly, the role of Cyclophilin B, C and D in HBV and HDV replication will be evaluated by siRNA specific for CypB, C and D.
as §4, with “Cytoplasmic extracts and supernatants were harvested at baseline; 24, 48 and 72 hours post-treatment.” left out
HepG2215 cells were seeded with the siRNAs (Dharmacon Inc., Lafayette, Colo.) at 50% density and incubated for 48 h. […] Total DNA was extracted from the samples and HBV DNA was quantitated by real time PCR, as above. […] The RNA was reverse transcribed with Quantitect Reverse transcription kit (Qiagen) and cDNA quantitated with SYBR Green Quantitect kit using Quantitect primers (Qiagen, Sussex, UK).

Data set [4] relates to Hepatitis B virus. The note with it: at one year, cited from earlier work; for rate of undetectable HBV DNA: HBeAg-negative patients with CHB; for virological treatment response rate (undetectable serum HBV DNA): HBeAg-positive patients.

On to `C/C=C/C[C@@H](C)[C@@H](O)[C@H]1C(=O)N[C@@H](CC)C(=O)N(C)[C@H](C)C(=O)N(CC)[C@@H](C(C)C)C(=O)N[C@@H](C(C)C)C(=O)N(C)[C@@H](CC(C)C)C(=O)N[C@@H](C)C(=O)N[C@H](C)C(=O)N(C)[C@@H](CC(C)C)C(=O)N(C)[C@@H](CC(C)C)C(=O)N(C)[C@@H](C(C)C)C(=O)N1C` [Alisporivir], for which the “reduction of intracellular HBV-DNA” value in data set [1] (HepG2215 and HUH-7 cells, dose-dependent (0.25-20 micrograms/ml), compared with untreated controls, p=0.004) came out at 70%. The “reduction of intracellular HBV DNA compared with NIM811” value in data set [1] (HepG2215 cells, 5 micrograms/mL, 72 h) was “greater than the reduction observed with NIM811”. Also, the “reduction of intracellular HBV DNA levels” value in data set [1] (HepG2215 cells, 5 micrograms/mL, 72 hours, FIG. 1) is listed as 10 fold. Moreover, the “reduction of cellular HBV DNA” value in data set [1] (HepG2215 cells) was “reductions”. Moreover, in data set [1] (Huh7 and HepG2215 cells, FIG. 4), the “reduction of cytoplasmic HBV DNA” value was “dose dependent reductions”. In data set [2] (HepG2215 and HUH-7 cells, dose-dependent (0.25-20 micrograms/ml), compared with untreated controls, p<0.001), the “reduction of secreted HBV-DNA” value stood at 63%. Further, the “effect in reducing HBV DNA levels in cell culture supernatants compared with NIM811” value in data set [2] (HepG2215 cells, 5.0 micrograms/mL, FIG. 2) is listed as “greater effect”. Also, the “reduction of secreted HBV DNA” value in data set [2] (HepG2215 cells, FIG. 5) is “reductions”. Further, the “reduction of secreted HBV DNA” value in data set [2] (transiently transfected Huh7 or stably transfected HepG2215 cells, FIG. 3) is “dose-dependent reduction”. Further, in data set [3], the “HBV-DNA levels in Cyp-silenced cells” value is reported as “further reduced” and the “HBsAg levels in Cyp-silenced cells” value is “further reduced”.
`C=C1[C@H](CO)[C@@H](O)C[C@@H]1n1cnc2c(=O)[nH]c(N)nc21` [entecavir]: in data set [4], the “rate of undetectable HBV DNA” value is given as 90% and the “virological treatment response rate (undetectable serum HBV DNA)” value (“virological treatment response rate” below) is 67%.
With `Cc1cn([C@@H]2C[C@@H](O)[C@H](CO)O2)c(=O)[nH]c1=O` [telbivudine, reference compound], in data set [1] (HepG2215 cells), the “reduction of cellular HBV DNA” value is recorded as “reductions”. Moreover, the “reduction of secreted HBV DNA” value in data set [2] (HepG2215 cells, FIG. 5) is “reductions”. For the same molecule, in data set [4], the “rate of undetectable HBV DNA” value is 88% and the “virological treatment response rate” value is on record as 60%.
As for `C[C@H](Cn1cnc2c(N)ncnc21)OCP(=O)(O)O` [tenofovir], in data set [4], the “rate of undetectable HBV DNA” value is recorded as 91% and the “virological treatment response rate” value is reported as 74%.
